The values that follow come from patent US12241021B2, “Method for fracking of simulation of hydrocarbon bearing formation” (Fluid Energy Group Ltd., priority 2018, dated 2025).

A short description of the test: Corrosion testing of 316 steel coupons with acidic fluids. The settings on record: for corrosion protection when used separately: alkyne alcohol or cinnamaldehyde alone in the inhibitor. The text has this: Corrosion inhibitor compositions according to preferred embodiments of the present invention were exposed to corrosion testing. Various steel grades (stainless steel and carbon steel) were subjected to acid compositions comprising corrosion inhibitors according to the present invention against known corrosion inhibitors to the listed compositions for various periods of time at varying temperatures. A desirable corrosion inhibition result was one where the lb/ft2 corrosion number is at or below 0.05. More preferably, that number is at or below 0.02.
33% HCl; MEA in a 5.5:1 ratio and 50% HCl; MEA in a 5.5:1 ratio indicate the volume amount of the original concentration of a stock solution containing HCl and Monoethanolamine in a ratio of 5.5:1. The HCl loading of a 33% HCl; MEA in a 5.5:1 ratio is approximately 6.5% HCl. The HCl loading of 50% HCl; MEA in a 5.5:1 ratio is approximately 10% HCl.

`CC(C)=CCCC(C)=CC=O` (racemic) [Citral, (±)-3,7-Dimethyl-2,6-octadienal]: the prevention of pitting entry (higher temperatures (even 110° C. to 120° C.)) is “some effectiveness for the prevention of pitting”.
Take `O=CC=Cc1ccccc1` [cinnamaldehyde]: the “corrosion protection when used separately” value is given as “did not provide corrosion protection sufficient”. In addition, the “film forming, protection of stainless steel” value (at these temperatures (90° C. to 120° C.)) is on record as “effective film former”.
As for `C#CCO` [propargyl alcohol], the “corrosion protection when used separately” value was “did not provide corrosion protection sufficient”.
